Test results from article PMC4490784, “Compensatory induction of MYC expression by sustained CDK9 inhibition via a BRD4-dependent mechanism” (eLife, 2015).

What was measured:
Test in all cases: KINOMEscan binding assay
[1] = biological target: T1, TTK (Homo sapiens, UniProt P33981); conditions: read-out: % Retention on Solid Support
T1 construct: purchased DiscoveRx KINOMEscan
Method in brief: (§1)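 Panel of >400 kinases screened by active-site competition binding, compound at 1 and 10 µM.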

[2] = biological target: T2, PLK2 (Homo sapiens, UniProt Q9NYY3)
T2 construct: purchased DiscoveRx KINOMEscan
Method in brief: as §1

[3] = biological target: T3, DDR1 (Homo sapiens, UniProt Q08345); conditions: read-out: % Retention on Solid Support
T3 construct: purchased DiscoveRx KINOMEscan
Method in brief: as §1

[4] = biological target: T4, PIM2 (Homo sapiens, UniProt Q9P1W9); conditions: read-out: % Retention on Solid Support
T4 construct: purchased DiscoveRx KINOMEscan
T4 sequence (Q9P1W9 whole entry): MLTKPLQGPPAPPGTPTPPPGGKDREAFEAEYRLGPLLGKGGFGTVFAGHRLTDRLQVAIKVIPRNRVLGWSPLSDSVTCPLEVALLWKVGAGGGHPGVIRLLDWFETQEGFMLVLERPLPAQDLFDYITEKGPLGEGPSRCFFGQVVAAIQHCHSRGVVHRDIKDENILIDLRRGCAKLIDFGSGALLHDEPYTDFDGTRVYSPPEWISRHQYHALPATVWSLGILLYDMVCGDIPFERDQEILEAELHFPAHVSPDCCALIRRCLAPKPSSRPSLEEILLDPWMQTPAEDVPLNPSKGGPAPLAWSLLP
Method in brief: as §1

[5] = biological target: T5, PKAC-alpha (Homo sapiens, UniProt P17612); conditions: read-out: % Retention on Solid Support
T5 construct: purchased DiscoveRx KINOMEscan
Method in brief: as §1

[6] = biological target: T6, CSNK2A1 (Homo sapiens, UniProt P68400); conditions: read-out: % Retention on Solid Support
T6 construct: purchased DiscoveRx KINOMEscan
T6 sequence (P68400 whole entry): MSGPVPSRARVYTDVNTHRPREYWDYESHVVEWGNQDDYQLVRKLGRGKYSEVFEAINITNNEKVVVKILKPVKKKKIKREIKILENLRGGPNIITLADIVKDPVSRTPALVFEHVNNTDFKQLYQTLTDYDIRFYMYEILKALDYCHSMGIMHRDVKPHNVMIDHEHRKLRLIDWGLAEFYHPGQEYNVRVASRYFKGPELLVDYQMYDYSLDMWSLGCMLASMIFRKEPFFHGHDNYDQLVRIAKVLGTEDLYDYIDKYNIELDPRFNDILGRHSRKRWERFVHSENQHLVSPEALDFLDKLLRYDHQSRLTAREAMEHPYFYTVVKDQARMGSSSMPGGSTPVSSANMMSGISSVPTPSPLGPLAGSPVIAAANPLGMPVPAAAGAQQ
Method in brief: as §1

[7] = biological target: T7, DDR2 (Homo sapiens, UniProt Q16832); conditions: read-out: % Retention on Solid Support
T7 construct: purchased DiscoveRx KINOMEscan
T7 sequence (Q16832 22-855): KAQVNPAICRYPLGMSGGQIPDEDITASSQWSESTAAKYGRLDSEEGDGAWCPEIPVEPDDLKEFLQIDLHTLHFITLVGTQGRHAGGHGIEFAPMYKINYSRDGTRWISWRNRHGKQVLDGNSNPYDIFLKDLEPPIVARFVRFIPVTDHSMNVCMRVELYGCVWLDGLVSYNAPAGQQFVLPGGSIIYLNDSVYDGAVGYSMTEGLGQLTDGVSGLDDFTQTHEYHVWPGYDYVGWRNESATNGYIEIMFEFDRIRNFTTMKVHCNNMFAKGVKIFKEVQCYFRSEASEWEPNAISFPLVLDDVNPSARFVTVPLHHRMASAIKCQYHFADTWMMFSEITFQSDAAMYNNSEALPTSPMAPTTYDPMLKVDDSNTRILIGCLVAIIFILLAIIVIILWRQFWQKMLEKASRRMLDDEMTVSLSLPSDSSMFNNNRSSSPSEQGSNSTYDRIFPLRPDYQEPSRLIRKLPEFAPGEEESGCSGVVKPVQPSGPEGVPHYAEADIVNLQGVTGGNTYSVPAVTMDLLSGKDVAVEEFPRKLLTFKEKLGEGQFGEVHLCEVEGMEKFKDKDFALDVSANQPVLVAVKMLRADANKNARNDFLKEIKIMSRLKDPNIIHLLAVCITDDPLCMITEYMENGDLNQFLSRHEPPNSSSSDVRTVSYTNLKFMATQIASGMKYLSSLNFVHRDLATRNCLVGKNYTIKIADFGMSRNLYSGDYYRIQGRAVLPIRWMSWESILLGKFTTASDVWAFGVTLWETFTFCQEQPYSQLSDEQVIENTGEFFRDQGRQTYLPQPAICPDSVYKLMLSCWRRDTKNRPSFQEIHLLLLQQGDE
Method in brief: as §1

[8] = biological target: T8, DCAMKL3 (Homo sapiens, UniProt Q9C098); conditions: read-out: % Retention on Solid Support
T8 construct: purchased DiscoveRx KINOMEscan
Method in brief: as §1

[9] = biological target: T9, EPHA1 (Homo sapiens, UniProt P21709); conditions: read-out: % Retention on Solid Support
T9 construct: purchased DiscoveRx KINOMEscan
Method in brief: as §1

[10] = biological target: T10, PIK3C2G (Homo sapiens, UniProt O75747); conditions: read-out: % Retention on Solid Support
T10 construct: purchased DiscoveRx KINOMEscan
T10 sequence (O75747 whole entry): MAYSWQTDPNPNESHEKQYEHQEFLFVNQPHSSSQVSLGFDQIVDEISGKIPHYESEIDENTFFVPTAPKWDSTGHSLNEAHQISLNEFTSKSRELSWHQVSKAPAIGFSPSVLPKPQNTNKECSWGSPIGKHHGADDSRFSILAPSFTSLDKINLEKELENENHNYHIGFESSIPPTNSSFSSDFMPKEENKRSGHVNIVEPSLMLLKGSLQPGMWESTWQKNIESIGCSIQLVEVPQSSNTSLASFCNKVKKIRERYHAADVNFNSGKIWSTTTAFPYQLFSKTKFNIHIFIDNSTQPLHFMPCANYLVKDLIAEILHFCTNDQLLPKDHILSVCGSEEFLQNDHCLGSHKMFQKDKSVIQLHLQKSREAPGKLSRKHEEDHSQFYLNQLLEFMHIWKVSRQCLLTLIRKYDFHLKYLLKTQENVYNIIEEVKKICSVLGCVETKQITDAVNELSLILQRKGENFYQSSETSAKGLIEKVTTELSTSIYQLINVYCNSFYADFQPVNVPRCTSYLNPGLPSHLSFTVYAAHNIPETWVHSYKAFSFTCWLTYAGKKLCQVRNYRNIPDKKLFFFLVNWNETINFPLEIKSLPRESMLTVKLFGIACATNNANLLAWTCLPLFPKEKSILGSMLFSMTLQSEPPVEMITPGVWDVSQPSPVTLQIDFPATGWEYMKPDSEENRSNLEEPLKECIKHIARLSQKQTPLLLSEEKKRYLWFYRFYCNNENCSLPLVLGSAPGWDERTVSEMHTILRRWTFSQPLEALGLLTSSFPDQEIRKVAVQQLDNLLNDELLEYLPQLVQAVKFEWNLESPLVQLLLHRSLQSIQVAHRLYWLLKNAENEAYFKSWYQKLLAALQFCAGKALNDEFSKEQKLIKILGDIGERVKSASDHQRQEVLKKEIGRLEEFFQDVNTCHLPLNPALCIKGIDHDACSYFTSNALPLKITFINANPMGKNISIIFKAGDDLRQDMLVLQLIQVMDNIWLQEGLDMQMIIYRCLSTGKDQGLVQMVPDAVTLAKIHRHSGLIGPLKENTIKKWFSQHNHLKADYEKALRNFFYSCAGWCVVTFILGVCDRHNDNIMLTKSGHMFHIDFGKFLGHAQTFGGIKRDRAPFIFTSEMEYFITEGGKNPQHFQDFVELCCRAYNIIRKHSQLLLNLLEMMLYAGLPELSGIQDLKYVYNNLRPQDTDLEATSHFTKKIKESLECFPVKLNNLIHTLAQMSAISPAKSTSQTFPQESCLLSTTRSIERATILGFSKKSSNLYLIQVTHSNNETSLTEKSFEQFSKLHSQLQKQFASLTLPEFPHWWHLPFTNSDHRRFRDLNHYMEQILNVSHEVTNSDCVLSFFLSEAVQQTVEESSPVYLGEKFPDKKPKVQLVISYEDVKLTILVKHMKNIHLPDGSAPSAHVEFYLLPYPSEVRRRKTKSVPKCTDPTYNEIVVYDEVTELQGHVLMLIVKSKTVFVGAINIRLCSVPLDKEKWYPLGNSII
Method in brief: as §1

[11] = biological target: T11, PAK6 (Homo sapiens, UniProt Q9NQU5); conditions: read-out: % Retention on Solid Support
T11 construct: purchased DiscoveRx KINOMEscan
Method in brief: as §1

[12] = biological target: T12, TNNI3K (Homo sapiens, UniProt Q59H18); conditions: read-out: % Retention on Solid Support
T12 construct: purchased DiscoveRx KINOMEscan
Method in brief: as §1

[13] = biological target: T13, ERK2 (Homo sapiens, UniProt P28482); conditions: read-out: % Retention on Solid Support
T13 construct: purchased DiscoveRx KINOMEscan
Method in brief: as §1

[14] = biological target: T14, PAK7 (Homo sapiens, UniProt Q9P286); conditions: read-out: % Retention on Solid Support
T14 construct: purchased DiscoveRx KINOMEscan
T14 sequence (Q9P286 whole entry): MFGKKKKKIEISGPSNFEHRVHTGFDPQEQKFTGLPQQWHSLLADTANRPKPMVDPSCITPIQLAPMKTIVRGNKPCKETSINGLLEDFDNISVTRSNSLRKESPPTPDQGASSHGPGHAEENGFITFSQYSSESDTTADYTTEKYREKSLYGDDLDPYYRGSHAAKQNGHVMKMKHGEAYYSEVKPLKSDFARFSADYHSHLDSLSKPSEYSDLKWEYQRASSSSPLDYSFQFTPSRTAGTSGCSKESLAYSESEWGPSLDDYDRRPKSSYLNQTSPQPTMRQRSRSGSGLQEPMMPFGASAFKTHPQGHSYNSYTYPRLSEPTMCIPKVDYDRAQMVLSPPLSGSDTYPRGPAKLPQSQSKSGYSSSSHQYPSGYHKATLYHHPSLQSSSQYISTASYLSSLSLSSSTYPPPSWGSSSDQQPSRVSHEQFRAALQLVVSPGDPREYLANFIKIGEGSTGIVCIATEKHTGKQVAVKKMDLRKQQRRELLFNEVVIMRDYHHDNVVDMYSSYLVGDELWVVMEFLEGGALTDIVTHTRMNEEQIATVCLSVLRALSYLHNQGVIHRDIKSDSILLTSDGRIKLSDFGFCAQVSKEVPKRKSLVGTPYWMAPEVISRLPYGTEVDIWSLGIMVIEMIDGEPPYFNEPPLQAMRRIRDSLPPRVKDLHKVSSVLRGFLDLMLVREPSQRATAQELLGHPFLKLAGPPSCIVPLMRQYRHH
Method in brief: as §1

[15] = biological target: T15, MKNK2 (Homo sapiens, UniProt Q9HBH9); conditions: read-out: % Retention on Solid Support
T15 construct: purchased DiscoveRx KINOMEscan
Method in brief: as §1

[16] = biological target: T16, MAP3K1 (Homo sapiens, UniProt Q13233); conditions: read-out: % Retention on Solid Support
T16 construct: purchased DiscoveRx KINOMEscan
Method in brief: as §1

[17] = biological target: T17, CAMK1G (Homo sapiens, UniProt Q96NX5); conditions: read-out: % Retention on Solid Support
T17 construct: purchased DiscoveRx KINOMEscan
Method in brief: as §1

[18] = biological target: IRAK4 (Homo sapiens, UniProt Q9NWZ3); conditions: 1 µM i-CDK9
Method in brief: as §1

[19] = biological target: T18, CLK4 (Homo sapiens, UniProt Q9HAZ1); conditions: read-out: % Retention on Solid Support
T18 construct: purchased DiscoveRx KINOMEscan
Method in brief: as §1

[20] = biological target: T19, ROCK1 (Homo sapiens, UniProt Q13464); conditions: read-out: % Retention on Solid Support
T19 construct: purchased DiscoveRx KINOMEscan
Method in brief: as §1

[21] = biological target: T20, PIK3CA(Q546K) (Homo sapiens, UniProt P42336, Q546K); conditions: read-out: % Retention on Solid Support
T20 construct: purchased DiscoveRx KINOMEscan
Method in brief: as §1

[22] = biological target: T21, PRKX (Homo sapiens, UniProt P51817); conditions: read-out: % Retention on Solid Support
T21 construct: purchased DiscoveRx KINOMEscan
T21 sequence (P51817 whole entry): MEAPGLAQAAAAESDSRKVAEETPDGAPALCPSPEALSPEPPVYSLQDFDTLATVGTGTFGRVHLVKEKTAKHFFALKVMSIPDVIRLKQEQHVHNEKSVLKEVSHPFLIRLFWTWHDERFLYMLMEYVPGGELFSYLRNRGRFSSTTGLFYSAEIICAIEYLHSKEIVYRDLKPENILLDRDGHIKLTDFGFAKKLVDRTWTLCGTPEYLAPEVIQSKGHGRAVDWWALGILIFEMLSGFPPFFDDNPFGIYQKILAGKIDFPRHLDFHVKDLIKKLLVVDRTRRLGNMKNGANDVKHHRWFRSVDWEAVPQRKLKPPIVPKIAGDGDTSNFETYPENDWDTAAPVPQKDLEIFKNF
Method in brief: as §1

[23] = biological target: T22, LATS1 (Homo sapiens, UniProt O95835); conditions: read-out: % Retention on Solid Support
T22 construct: purchased DiscoveRx KINOMEscan
Method in brief: as §1

[24] = biological target: T23, CSF1R (Homo sapiens, UniProt P07333); conditions: read-out: % Retention on Solid Support
T23 construct: purchased DiscoveRx KINOMEscan
Method in brief: as §1

[25] = biological target: T24, ASK2 (Homo sapiens, UniProt O95382); conditions: read-out: % Retention on Solid Support
T24 construct: purchased DiscoveRx KINOMEscan
Method in brief: as §1

[26] = biological target: T25, TRKC (Homo sapiens, UniProt Q16288); conditions: read-out: % Retention on Solid Support
T25 construct: purchased DiscoveRx KINOMEscan
Method in brief: as §1

[27] = biological target: T26, HPK1 (Homo sapiens, UniProt Q92918); conditions: read-out: % Retention on Solid Support
T26 construct: purchased DiscoveRx KINOMEscan
Method in brief: as §1

[28] = biological target: T27, MYLK2 (Homo sapiens, UniProt Q9H1R3); conditions: read-out: % Retention on Solid Support
T27 construct: purchased DiscoveRx KINOMEscan
Method in brief: as §1

[29] = biological target: T28, TESK1 (Homo sapiens, UniProt Q15569); conditions: read-out: % Retention on Solid Support
T28 construct: purchased DiscoveRx KINOMEscan
Method in brief: as §1

[30] = biological target: T29, SRPK3 (Homo sapiens, UniProt Q9UPE1); conditions: read-out: % Retention on Solid Support
T29 construct: purchased DiscoveRx KINOMEscan
Method in brief: as §1

T1 sequence (P33981 whole entry): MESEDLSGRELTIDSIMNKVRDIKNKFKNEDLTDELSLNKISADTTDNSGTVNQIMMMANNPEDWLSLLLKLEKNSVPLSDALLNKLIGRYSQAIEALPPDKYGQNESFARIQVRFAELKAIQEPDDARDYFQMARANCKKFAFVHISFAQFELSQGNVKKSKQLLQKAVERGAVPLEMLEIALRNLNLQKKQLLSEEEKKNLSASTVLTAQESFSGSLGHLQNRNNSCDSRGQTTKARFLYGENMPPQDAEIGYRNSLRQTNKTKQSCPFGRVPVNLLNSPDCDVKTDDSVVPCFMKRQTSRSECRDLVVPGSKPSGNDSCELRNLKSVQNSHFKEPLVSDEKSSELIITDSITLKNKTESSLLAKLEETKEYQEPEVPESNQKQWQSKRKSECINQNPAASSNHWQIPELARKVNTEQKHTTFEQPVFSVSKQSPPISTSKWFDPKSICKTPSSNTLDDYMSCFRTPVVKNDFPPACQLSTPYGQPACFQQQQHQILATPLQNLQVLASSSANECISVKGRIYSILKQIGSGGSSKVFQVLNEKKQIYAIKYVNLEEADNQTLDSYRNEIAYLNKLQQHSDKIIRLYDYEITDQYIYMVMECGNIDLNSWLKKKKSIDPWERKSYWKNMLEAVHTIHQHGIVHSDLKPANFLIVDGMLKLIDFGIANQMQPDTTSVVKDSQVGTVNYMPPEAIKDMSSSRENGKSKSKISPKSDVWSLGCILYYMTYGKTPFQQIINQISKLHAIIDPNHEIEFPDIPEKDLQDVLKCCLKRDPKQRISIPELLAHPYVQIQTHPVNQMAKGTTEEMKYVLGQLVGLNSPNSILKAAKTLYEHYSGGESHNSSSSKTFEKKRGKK

For N[C@H]1CC[C@H](Nc2cc(-c3cccc(NCc4cccc(F)c4)n3)c(Cl)cn2)CC1 [i-CDK9, N2′-(trans-4-aminocyclohexyl)-5′-chloro-N6-(3-fluorobenzyl)-2,4′-bipyridine-2′,6-diamine], the remaining binding at 1 µM ([1]; 1 µM i-CDK9) was 100%, the remaining binding at 10 µM ([1]; 10 µM i-CDK9) was 100% and the “% Retention on Solid Support” value ([2]; 1 µM i-CDK9) was 100%. For the same molecule, the “% Retention on Solid Support” value ([2]; 10 µM i-CDK9) was 100%, the remaining binding at 1 µM ([3]; 1 µM i-CDK9) was 100% and the remaining binding at 10 µM ([3]; 10 µM i-CDK9) was 92%. It also gave a remaining binding at 1 µM ([4]; 1 µM i-CDK9) of 96%, a remaining binding at 10 µM ([4]; 10 µM i-CDK9) of 22% and a remaining binding at 1 µM ([5]; 1 µM i-CDK9) of 86%. It also gave a remaining binding at 10 µM ([5]; 10 µM i-CDK9) of 100%, a remaining binding at 1 µM ([6]; 1 µM i-CDK9) of 100% and a remaining binding at 10 µM ([6]; 10 µM i-CDK9) of 100%. It also gave a remaining binding at 1 µM ([7]; 1 µM i-CDK9) of 100%, a remaining binding at 10 µM ([7]; 10 µM i-CDK9) of 92% and a remaining binding at 1 µM ([8]; 1 µM i-CDK9) of 100%. The remaining binding at 10 µM ([8]; 10 µM i-CDK9) was 63%, the remaining binding at 1 µM ([9]; 1 µM i-CDK9) was 99% and the remaining binding at 10 µM ([9]; 10 µM i-CDK9) was 100%. For the same molecule, the remaining binding at 1 µM ([10]; 1 µM i-CDK9) was 100%, the remaining binding at 10 µM ([10]; 10 µM i-CDK9) was 99% and the remaining binding at 1 µM ([11]; 1 µM i-CDK9) was 100%. It also gave a remaining binding at 10 µM ([11]; 10 µM i-CDK9) of 100%, a remaining binding at 1 µM ([12]; 1 µM i-CDK9) of 81% and a remaining binding at 10 µM ([12]; 10 µM i-CDK9) of 100%. The remaining binding at 1 µM ([13]; 1 µM i-CDK9) was 100%, the remaining binding at 10 µM ([13]; 10 µM i-CDK9) was 100% and the remaining binding at 1 µM ([14]; 1 µM i-CDK9) was 75%. The remaining binding at 10 µM ([14]; 10 µM i-CDK9) was 81%, the remaining binding at 1 µM ([15]; 1 µM i-CDK9) was 100% and the remaining binding at 10 µM ([15]; 10 µM i-CDK9) was 99%. For the same molecule, the remaining binding at 1 µM ([16]; 1 µM i-CDK9) was 93%, the remaining binding at 10 µM ([16]; 10 µM i-CDK9) was 100% and the remaining binding at 1 µM ([17]; 1 µM i-CDK9) was 92%. For the same molecule, the remaining binding at 10 µM ([17]; 10 µM i-CDK9) was 100%, the “% Retention on Solid Support” value [18] was 93% and the remaining binding at 1 µM ([19]; 1 µM i-CDK9) was 18%. The remaining binding at 10 µM ([19]; 10 µM i-CDK9) was 4.2%, the remaining binding at 1 µM ([20]; 1 µM i-CDK9) was 100% and the remaining binding at 10 µM ([20]; 10 µM i-CDK9) was 93%. It also gave a remaining binding at 1 µM ([21]; 1 µM i-CDK9) of 73%, a remaining binding at 10 µM ([21]; 10 µM i-CDK9) of 100% and a remaining binding at 1 µM ([22]; 1 µM i-CDK9) of 100%. For the same molecule, the remaining binding at 10 µM ([22]; 10 µM i-CDK9) was 90%, the remaining binding at 1 µM ([23]; 1 µM i-CDK9) was 100% and the remaining binding at 10 µM ([23]; 10 µM i-CDK9) was 100%. It also gave a remaining binding at 1 µM ([24]; 1 µM i-CDK9) of 59%, a remaining binding at 10 µM ([24]; 10 µM i-CDK9) of 100% and a remaining binding at 1 µM ([25]; 1 µM i-CDK9) of 100%. The remaining binding at 10 µM ([25]; 10 µM i-CDK9) was 92%, the remaining binding at 1 µM ([26]; 1 µM i-CDK9) was 63% and the remaining binding at 10 µM ([26]; 10 µM i-CDK9) was 95%. For the same molecule, the remaining binding at 1 µM ([27]; 1 µM i-CDK9) was 86%, the remaining binding at 10 µM ([27]; 10 µM i-CDK9) was 100% and the remaining binding at 1 µM ([28]; 1 µM i-CDK9) was 100%. For the same molecule, the remaining binding at 10 µM ([28]; 10 µM i-CDK9) was 88%, the remaining binding at 1 µM ([29]; 1 µM i-CDK9) was 100% and the remaining binding at 10 µM ([29]; 10 µM i-CDK9) was 57%. For the same molecule, the remaining binding at 1 µM ([30]; 1 µM i-CDK9) was 100% and the remaining binding at 10 µM ([30]; 10 µM i-CDK9) was 100%.
